In publication PMC4452296, “Comparison of Paeoniflorin and Albiflorin on Human CYP3A4 and CYP2D6” (Evidence-based Complementary and Alternative Medicine : eCAM, 2015) one finds IC50 data, which are given here for two molecules.

The target of one assay is CYP2D6 (Homo sapiens, UniProt P10635). In words: biochemical.
The next assay deals with CYP3A4 (Homo sapiens, UniProt P08684). The experiment in a line: biochemical.
CYP3A4, sequence (P08684 2-503): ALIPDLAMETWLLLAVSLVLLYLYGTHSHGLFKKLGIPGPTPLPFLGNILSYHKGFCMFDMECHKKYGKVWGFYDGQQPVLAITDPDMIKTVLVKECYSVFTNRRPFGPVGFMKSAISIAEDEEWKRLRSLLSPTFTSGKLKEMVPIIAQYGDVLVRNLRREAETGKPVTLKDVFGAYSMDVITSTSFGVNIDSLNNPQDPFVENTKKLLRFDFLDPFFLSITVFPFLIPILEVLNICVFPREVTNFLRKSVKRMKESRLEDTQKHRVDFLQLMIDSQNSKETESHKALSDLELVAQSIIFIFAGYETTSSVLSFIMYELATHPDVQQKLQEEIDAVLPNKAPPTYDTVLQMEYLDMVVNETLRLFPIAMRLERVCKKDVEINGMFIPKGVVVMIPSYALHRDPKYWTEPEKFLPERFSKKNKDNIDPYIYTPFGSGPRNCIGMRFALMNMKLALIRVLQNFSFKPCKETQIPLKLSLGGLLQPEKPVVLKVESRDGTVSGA

CYP2D6, sequence (P10635 whole entry): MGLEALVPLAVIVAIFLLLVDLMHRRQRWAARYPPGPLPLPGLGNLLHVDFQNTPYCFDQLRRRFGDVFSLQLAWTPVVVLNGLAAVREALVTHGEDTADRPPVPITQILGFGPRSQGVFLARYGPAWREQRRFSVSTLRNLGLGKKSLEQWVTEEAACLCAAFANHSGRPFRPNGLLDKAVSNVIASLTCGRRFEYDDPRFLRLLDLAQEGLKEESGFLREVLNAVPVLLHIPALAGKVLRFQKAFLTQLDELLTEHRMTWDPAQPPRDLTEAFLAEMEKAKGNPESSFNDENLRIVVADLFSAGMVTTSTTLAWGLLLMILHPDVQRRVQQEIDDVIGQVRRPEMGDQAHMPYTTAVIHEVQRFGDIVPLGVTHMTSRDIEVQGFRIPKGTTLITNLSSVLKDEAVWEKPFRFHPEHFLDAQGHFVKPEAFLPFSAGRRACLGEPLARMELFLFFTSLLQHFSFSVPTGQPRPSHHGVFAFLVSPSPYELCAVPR

`CC12CC(O)C3CC1(O[C@@H]1O[C@H](CO)[C@@H](O)[C@H](O)[C@H]1O)C3(COC(=O)c1ccccc1)C(=O)O2` (stereo partly shown) [albiflorin]: the figures for the IC50 against CYP2D6 and on CYP3A4 were 14.4 mM and 11.4 mM, respectively.
Consider `C[C@@]12C[C@@]3(O)O[C@@H](O1)[C@]1(COC(=O)c4ccccc4)[C@H]3C[C@@]12O[C@@H]1O[C@H](CO)[C@@H](O)[C@H](O)[C@H]1O` [paeoniflorin], for which the IC50 at CYP2D6 was found to be 12.7 mM; on CYP3A4, 4.79 mM.
